From US11034671B2, “Apoptosis signal-regulating kinase inhibitors and uses thereof” (SICHUAN HAISCO PHARMACEUTICAL CO., LTD., priority 2017, dated 2021)

Each molecule was assayed against ASK1 (Homo sapiens (Human), UniProt Q99683) (assay: ASK1 KINOMEscan assay (biochemical Kd), competition binding). Conditions: DNA-tagged ASK1 kinase, 11-point 3-fold dilution.
Sequence of ASK1 (Q99683 whole entry): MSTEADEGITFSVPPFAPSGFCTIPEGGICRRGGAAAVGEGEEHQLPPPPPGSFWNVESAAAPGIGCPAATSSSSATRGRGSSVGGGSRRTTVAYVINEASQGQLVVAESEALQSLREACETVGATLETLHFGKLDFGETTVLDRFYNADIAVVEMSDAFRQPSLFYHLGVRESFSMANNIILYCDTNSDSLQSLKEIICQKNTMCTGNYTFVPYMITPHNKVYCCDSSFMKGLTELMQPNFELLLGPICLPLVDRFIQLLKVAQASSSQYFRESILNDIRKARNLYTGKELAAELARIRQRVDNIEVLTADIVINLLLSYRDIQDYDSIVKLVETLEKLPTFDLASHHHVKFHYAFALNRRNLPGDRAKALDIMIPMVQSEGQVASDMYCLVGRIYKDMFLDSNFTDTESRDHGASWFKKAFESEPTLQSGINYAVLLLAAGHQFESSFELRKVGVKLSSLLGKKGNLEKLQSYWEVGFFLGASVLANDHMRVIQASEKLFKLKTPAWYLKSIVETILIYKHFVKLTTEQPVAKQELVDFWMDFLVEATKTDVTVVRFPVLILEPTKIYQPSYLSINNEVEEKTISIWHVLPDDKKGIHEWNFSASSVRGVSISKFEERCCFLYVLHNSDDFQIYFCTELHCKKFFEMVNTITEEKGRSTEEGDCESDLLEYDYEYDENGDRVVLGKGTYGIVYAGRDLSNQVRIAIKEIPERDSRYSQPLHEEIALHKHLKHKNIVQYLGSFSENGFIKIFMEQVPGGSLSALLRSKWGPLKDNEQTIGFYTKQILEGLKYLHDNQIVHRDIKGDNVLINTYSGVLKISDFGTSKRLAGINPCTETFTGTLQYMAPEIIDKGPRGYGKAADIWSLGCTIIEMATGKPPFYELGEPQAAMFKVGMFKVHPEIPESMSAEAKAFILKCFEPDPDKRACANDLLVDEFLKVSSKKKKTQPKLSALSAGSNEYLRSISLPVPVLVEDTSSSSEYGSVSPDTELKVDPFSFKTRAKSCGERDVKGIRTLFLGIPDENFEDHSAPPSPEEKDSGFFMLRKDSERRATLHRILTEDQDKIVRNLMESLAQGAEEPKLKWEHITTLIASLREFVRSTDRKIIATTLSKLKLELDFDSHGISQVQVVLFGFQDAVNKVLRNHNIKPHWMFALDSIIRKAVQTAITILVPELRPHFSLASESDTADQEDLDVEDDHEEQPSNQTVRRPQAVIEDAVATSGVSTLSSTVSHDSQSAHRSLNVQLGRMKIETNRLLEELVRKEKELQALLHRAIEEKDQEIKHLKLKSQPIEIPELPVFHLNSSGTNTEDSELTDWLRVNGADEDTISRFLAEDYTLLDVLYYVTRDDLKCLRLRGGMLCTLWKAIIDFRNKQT
Description: The binding of compounds to ASK1 were determined using DiscoverX's proprietary technology. […] The assay is performed by combining three components: DNA-tagged ASK1 kinase; immobilized ligand; and a test compound. The ability of the test compound to compete with the immobilized ligand is measured via quantitative PCR of the DNA tag. […] The liganded beads were blocked with excess biotin and washed with blocking buffer (SeaBlock (Pierce), 1% BSA, 0.05% Tween 20, 1 mM DTT) to remove unbound ligand and to reduce nonspecific binding. […] Kds were determined using an 11-point 3-fold compound dilution series with three DMSO control points. […] The compounds were then diluted directly into the assays such that the final concentration of DMSO was 0.9%. All reactions were performed in polypropylene 384-well plate. […] The kinase concentration in the eluates was measured by qPCR. Most Kds were determined using a compound top concentration=30,000 nM. […] Binding constants (Kds) were calculated with a standard dose-response curve using the Hill equation: Response=Background+{(Signal−Background)/[1+(Kd^Hill Slope/Dose^Hill Slope)]}, the Hill Slope was set to −1, and curves were fitted using a non-linear least square fit with the Levenberg-Marquardt algorithm.
With `O=C1Nc2cccc(n2)-c2nncn2CCCOc2ccc(-c3ccc(C(F)F)nc3)cc21` [Example 90] the Kd was over 1000 nM.
In the case of `Cn1ncc2cc(-c3ccc4c(c3)C(=O)Nc3cccc(n3)-c3nncn3CCCCO4)ccc21` [Example 55], the Kd is reported as under 10 nM.
`O=C1Nc2cccc(n2)-c2nncn2CCCCOc2ccc(C(F)(F)F)cc21` [Example 32] gave a Kd of 10 to 100 nM.
In the case of `O=C1Nc2cccc(n2)-c2nncn2CCCCOc2ccc(-c3cnc(F)c(F)c3)cc21` [Example 98], the Kd is reported as under 10 nM.
Work on `O=C1Nc2cccc(n2)-c2nncn2CCCOCc2ccc(-c3ccc(C(F)F)nc3)cc21` [Example 82] yielded a Kd of under 10 nM.
With `O=C1Nc2cccc(c2)-c2nncn2CCCOc2ccc(-c3ccc(C4CC4)nc3)cc21` [Example 21] the Kd was over 1000 nM.
`O=C1Nc2cccc(n2)-c2nncn2CCCCOc2ccc(-c3cnc(F)c(Cl)c3)cc21` [Example 99] gave a Kd of under 10 nM.
Work on `O=C1Nc2cccc(n2)-c2nncn2CCCOCc2ccc(-c3ccc(C4CC4)nc3)cc21` [Example 95] yielded a Kd of under 10 nM.
Molecule `O=C1Nc2cccc(n2)-c2nncn2CCCCCc2ccc(-c3ccc(C4CC4)nc3)cc21` [Example 8] has a Kd of 10 to 100 nM.
With `O=C1Nc2cccc(n2)-c2nncn2[C@H]2CC[C@H](CC2)Oc2ccc(-c3ccc(C(F)F)nc3)cc21` [Example 84] the Kd was under 10 nM.
In the case of `O=C1Nc2cccc(n2)-c2nncn2CCCOc2ccc(-c3ccccc3)cc21` [Example 57], the Kd is reported as 10 to 100 nM.
For `O=C1Nc2cccc(n2)-c2nncn2CC=CCCOc2ccc(-c3ccc(C4CC4)nc3)cc21` [Example 14], the Kd was 10 to 100 nM.
Molecule `Cc1ncc(-c2ccc3c(c2)C(=O)Nc2cccc(n2)-c2nncn2CCCCO3)cn1` [Example 73] has a Kd of under 10 nM.
`CC(C)(O)c1ccc2c(c1)OCCCCn1cnnc1-c1cccc(n1)NC2=O` [Example 53] was tested, and the Kd was under 10 nM.
Molecule `O=C1Nc2cccc(n2)-c2nncn2CCCOc2ccc(Br)cc21` [Example 33] has a Kd of 100 to 1000 nM.
Work on `CC(C)n1nccc1-c1ccc2c(c1)C(=O)Nc1cccc(n1)-c1nncn1CCCCO2` [Example 45] yielded a Kd of 100 to 1000 nM.
With `O=C1Nc2cccc(n2)-c2nncn2CCCOCc2ccc(-c3cnc(F)c(Cl)c3)cc21` [Example 106] the Kd was 10 to 100 nM.
`Cc1ccc(-c2cc3c(cc2F)OCCCCn2cnnc2-c2cccc(n2)NC3=O)cn1` [Example 64] gave a Kd of 100 to 1000 nM.
`Cc1ccc(-c2ccc3c(c2)C(=O)Nc2cccc(n2)-c2nncn2C[C@@H]2CC2CO3)cn1` (stereo partly shown) [Example 81] was tested, and the Kd was under 10 nM.
`COc1cc2c(cc1OC)C(=O)Nc1cccc(n1)-c1nncn1CCCCO2` [Example 29] gave a Kd of 100 to 1000 nM.
Molecule `Cc1ccc(-c2ccc3c(c2)C(=O)Nc2cccc(n2)-c2nncn2C[C@H]2CC2CO3)cn1` (stereo partly shown) [Example 77] has a Kd of under 10 nM.
In the case of `CC1CCOc2ccc(-c3ccc(C(F)F)nc3)cc2C(=O)Nc2cccc(n2)-c2nncn21` (stereo not shown) [Example 83], the Kd is reported as over 1000 nM.
For `N#Cc1ccc2c(c1)C(=O)Nc1cccc(n1)-c1nncn1CCCCO2` [Example 31], the Kd was under 10 nM.
`O=C1Nc2cccc(n2)-c2nncn2CCCCOc2ccc(-c3ccc4nccn4c3)cc21` [Example 58] was tested, and the Kd was under 10 nM.
With `O=C1Nc2cccc(n2)-c2nncn2CCCCCCOc2ccc(-c3ccc(C4CC4)nc3)cc21` [Example 9] the Kd was 100 to 1000 nM.
For `COc1ccc2c(c1)C(=O)Nc1cccc(n1)-c1nncn1CC/C=C/C2` [Example 4], the Kd was over 1000 nM.
Molecule `COc1ccc2c(c1)C(=O)Nc1cccc(n1)-c1nncn1CCCCC2` [Example 5] has a Kd of 100 to 1000 nM.
Molecule `Cc1ccc(-c2ccc3c(c2)C(=O)Nc2cccc(n2)-c2nncn2CCCO3)cn1` [Example 60] has a Kd of under 10 nM.
`Cc1ncc(-c2ccc3c(c2)C(=O)Nc2cccc(n2)-c2nncn2CCCCO3)cc1Cl` [Example 75] was tested, and the Kd was 10 to 100 nM.
`Cc1ccc(-c2ccc3c(c2)C(=O)Nc2cccc(n2)-c2nncn2CC(C)CCO3)cn1` (stereo not shown) [Example 80] was tested, and the Kd was under 10 nM.
`O=C1Nc2cccc(n2)-c2nncn2CCCCOc2ccc(OC3CCOC3)cc21` (stereo not shown) [Example 20] showed a Kd of 10 to 100 nM.
With `COc1ccc2c(c1)C(=O)Nc1cccc(n1)-c1nncn1CCCCO2` [Example 7] the Kd was under 10 nM.
`COc1ccc2c(c1)C(=O)Nc1cccc(n1)-c1nncn1CC=CC2` [Example 94] showed a Kd of over 1000 nM.
With `O=C1Nc2cccc(n2)-c2nncn2CC=CCCOc2ccc(Br)cc21` [Example 10] the Kd was under 10 nM.
